Experimental data published in US9718813B2, “Imidazolin-5-one derivative useful as FASN inhibitors for the treatment of cancer” (Janssen Pharmaceutica, NV, priority 2013, dated 2017).

biological target: hFASN enzyme (full length) (Homo sapiens (Human), UniProt P49327); assay: Fatty Acid Synthase (FASN) Inhibition Scintillation Proximity Assay; assay type: biochemical; settings: 3H-acetyl-CoA and malonyl-CoA substrates, SPA, mean if tested more than once
Method: In this assay, inhibition of FASN activity is measured using ^3H-acetyl-CoA and malonyl-CoA as substrates. ^3H-Acetyl CoA is converted to ^3H-palmitate through a series of reactions by the FASN protein, which contains 7 functional domains and carries out 7 enzymatic reactions to ultimately produce ^3H-palmitate. The assay principle is based upon the fact that ^3H-acetyl-CoA is hydrophilic and the end product, ^3H-palmitate is hydrophobic.
10 μL assay buffer (100 mM KH2PO4 pH 7.5, 1 mM DTT) (20 μL in blanks) was added to a 384-well white Opti Plate plate (Perkin Elmer). 0.9 μL test compound (at concentrations of 30 μM, 10 μM, 3 μM, 1 μM, 0.30 μM, 0.10 μM, 0.03 μM and 0.01 μM)/DMSO and 10 μL hFASN enzyme (full length, 300 ng, purified in house) or 10 μL assay buffer was added to the wells. […] The reaction was stopped by adding 20 μL Streptavidin coupled imaging beads (25 mg/ml). After incubation for 30 minutes at room temperature in the dark, the 384 well plate was centrifuged at 1500 rpm for 3 minutes and was measured after at least 24 hrs by the LEADseeker™, measuring emission using a 610±20 nm pass filter.
Raw data generated by the instrument were normalized to % Controlmin values, which were calculated as: % Controlmin=100*(x−mLC)/(mHC−mLC)
where mLC and mHC were the means of the low control wells and high control wells on the plate, after manual exclusion of outliers. A plot of Controlmin versus test compound concentration was fitted to a 4-parameter logistic curve using a non-linear least squares regression method.

Sequence of hFASN enzyme (full length) (P49327 whole entry, the tested form may be a part): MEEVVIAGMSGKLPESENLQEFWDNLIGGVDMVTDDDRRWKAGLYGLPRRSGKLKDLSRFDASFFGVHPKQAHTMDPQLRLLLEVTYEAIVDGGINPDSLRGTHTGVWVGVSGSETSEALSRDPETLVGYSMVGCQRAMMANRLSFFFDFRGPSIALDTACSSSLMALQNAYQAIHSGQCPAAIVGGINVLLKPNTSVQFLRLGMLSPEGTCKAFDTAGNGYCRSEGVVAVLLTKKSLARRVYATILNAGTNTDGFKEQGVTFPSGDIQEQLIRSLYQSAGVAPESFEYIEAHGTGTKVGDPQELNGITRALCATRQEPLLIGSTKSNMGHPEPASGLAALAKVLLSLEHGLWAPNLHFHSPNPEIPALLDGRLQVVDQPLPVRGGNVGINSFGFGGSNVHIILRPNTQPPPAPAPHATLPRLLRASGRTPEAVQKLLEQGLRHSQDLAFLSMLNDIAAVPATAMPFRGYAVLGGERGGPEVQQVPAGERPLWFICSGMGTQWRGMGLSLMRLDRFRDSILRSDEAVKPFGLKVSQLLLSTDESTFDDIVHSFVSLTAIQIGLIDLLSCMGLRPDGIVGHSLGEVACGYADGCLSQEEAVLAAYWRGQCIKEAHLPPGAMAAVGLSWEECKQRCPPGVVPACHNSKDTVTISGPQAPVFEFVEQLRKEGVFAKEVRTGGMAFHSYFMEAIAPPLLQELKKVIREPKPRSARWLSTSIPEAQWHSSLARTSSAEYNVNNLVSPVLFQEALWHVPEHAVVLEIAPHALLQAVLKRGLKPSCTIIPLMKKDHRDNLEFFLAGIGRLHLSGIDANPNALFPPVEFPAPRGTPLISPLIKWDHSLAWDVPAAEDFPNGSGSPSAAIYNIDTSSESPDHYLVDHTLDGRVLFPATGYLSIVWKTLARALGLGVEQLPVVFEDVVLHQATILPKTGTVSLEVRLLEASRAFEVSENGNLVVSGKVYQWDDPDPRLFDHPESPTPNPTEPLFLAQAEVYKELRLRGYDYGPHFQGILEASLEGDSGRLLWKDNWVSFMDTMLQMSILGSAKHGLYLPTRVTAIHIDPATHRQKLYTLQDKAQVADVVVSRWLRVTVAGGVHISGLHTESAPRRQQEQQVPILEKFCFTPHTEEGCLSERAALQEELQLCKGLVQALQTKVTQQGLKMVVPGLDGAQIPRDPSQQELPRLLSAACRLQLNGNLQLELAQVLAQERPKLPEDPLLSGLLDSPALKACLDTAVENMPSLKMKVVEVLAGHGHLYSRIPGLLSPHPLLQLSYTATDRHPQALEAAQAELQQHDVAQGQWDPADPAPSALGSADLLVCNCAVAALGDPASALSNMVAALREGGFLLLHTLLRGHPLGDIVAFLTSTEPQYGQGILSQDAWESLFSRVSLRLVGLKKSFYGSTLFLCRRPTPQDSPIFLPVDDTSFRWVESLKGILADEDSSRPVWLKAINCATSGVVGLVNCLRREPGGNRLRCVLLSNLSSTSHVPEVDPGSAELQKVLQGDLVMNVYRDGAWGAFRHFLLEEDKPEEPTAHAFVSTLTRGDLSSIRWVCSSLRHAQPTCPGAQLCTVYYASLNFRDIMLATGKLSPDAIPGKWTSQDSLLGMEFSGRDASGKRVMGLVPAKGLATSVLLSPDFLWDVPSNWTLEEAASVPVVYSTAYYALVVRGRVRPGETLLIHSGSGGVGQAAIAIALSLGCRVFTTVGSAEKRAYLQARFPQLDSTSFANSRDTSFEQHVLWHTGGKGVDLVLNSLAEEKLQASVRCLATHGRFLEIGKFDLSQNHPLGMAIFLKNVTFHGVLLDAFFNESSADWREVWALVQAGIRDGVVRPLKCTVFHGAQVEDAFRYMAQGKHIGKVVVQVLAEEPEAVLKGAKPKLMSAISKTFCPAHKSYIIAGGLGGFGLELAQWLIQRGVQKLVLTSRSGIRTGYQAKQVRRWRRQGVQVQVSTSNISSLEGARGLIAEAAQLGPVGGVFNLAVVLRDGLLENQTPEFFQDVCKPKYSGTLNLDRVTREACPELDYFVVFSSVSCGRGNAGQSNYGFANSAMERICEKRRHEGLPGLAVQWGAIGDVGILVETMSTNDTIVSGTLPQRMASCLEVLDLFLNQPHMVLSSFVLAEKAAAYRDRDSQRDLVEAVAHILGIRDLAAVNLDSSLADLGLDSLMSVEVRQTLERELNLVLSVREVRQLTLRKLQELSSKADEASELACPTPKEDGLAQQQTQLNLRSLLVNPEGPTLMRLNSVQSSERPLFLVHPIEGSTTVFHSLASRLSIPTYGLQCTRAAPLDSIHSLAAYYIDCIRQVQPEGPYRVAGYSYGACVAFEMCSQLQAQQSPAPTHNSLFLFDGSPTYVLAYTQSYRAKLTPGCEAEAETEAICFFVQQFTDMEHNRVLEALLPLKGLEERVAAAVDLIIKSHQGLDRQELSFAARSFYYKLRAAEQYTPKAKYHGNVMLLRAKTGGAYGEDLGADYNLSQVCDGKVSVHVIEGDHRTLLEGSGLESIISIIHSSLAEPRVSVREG

Question: `CC1(C)N=C(c2ccc(-c3ccc4ncccc4c3)cc2F)N(C[C@@H]2CCN(C(=O)C3CC3)C2)C1=O` [Compound 37, (R)-1-((1-(cyclopropanecarbonyl)pyrrolidin-3-yl)methyl)-2-(2-fluoro-4-(quinolin-6-yl)phenyl)-4,4-dimethyl-1H-imidazol-5(4H)-one] was tested. Which “Human FASN pIC50” value did it give?
Answer: 5.86

Question: How did the “Human FASN pIC50” value turn out when `Cc1cc(-c2ccc3cc(C#N)ccc3c2)ccc1C1=NC(C)(C)C(=O)N1CC1CN(C(=O)C2CC2)C1` [Compound 96, 6-(4-(1-((1-(cyclopropanecarbonyl)azetidin-3-yl)methyl)-4,4-dimethyl-5-oxo-4,5-dihydro-1H-imidazol-2-yl)-3-methylphenyl)-2-naphthonitrile] was run?
Answer: 7.39

Question: With `CC1(C)N=C(c2ccc(-c3cccc4ncccc34)cc2)N(CC2CN(C(=O)C3CC3)C2)C1=O` [Compound 18, 1-((1-(cyclopropanecarbonyl)azetidin-3-yl)methyl)-4,4-dimethyl-2-(4-(quinolin-5-yl)phenyl)-1H-imidazol-5(4H)-one] as the compound, how does the “Human FASN pIC50” value read?
Answer: ~5.25

Question: For `CC1(C)N=C(c2ccc(-c3nc4ccccc4o3)cc2)N(CC2CN(C(=O)C3CC3)C2)C1=O` [Compound 12, 2-(4-(benzo[d]oxazol-2-yl)phenyl)-1-((1-(cyclopropanecarbonyl)azetidin-3-yl)methyl)-4,4-dimethyl-1H-imidazol-5(4H)-one], which “Human FASN pIC50” value is on record?
Answer: ~5.37

Question: `CC1(C)N=C(c2ccc(-c3cccc4cnccc34)cc2F)N(CC2CN(C(=O)C3CC3)C2)C1=O` [Compound 21, 1-((1-(cyclopropanecarbonyl)azetidin-3-yl)methyl)-2-(2-fluoro-4-(isoquinolin-5-yl)phenyl)-4,4-dimethyl-1H-imidazol-5(4H)-one] was tested. Which “Human FASN pIC50” value did it give?
Answer: 5.87

Question: With `CC1(C)N=C(c2ccc(-c3ccc4ncccc4c3)cc2F)N(CC2CN(C(=O)C3CC3)C2)C1=O` [Compound 38, 1-((1-(cyclopropanecarbonyl)azetidin-3-yl)methyl)-2-(2-fluoro-4-(quinolin-6-yl)phenyl)-4,4-dimethyl-1H-imidazol-5(4H)-one] as the compound, how does the “Human FASN pIC50” value read?
Answer: 5.05

Question: For `Cn1cnc2cc(-c3ccc(C4=NC(C)(C)C(=O)N4CC4CN(C(=O)C5(C)CC5)C4)c(F)c3)ccc21` [Compound 93, 2-(2-fluoro-4-(1-methyl-1H-benzo[d]imidazol-5-yl)phenyl)-4,4-dimethyl-1-((1-(1-methylcyclopropanecarbonyl)azetidin-3-yl)methyl)-1H-imidazol-5(4H)-one], which “Human FASN pIC50” value is on record?
Answer: 7.00

Question: With `CC1(C)N=C(c2ccc(-c3ccc4ncccc4c3)cc2)N(C[C@@H]2CCN(C(=O)C3CC3)C2)C1=O` [Compound 64, (R)-1-((1-(cyclopropanecarbonyl)pyrrolidin-3-yl)methyl)-4,4-dimethyl-2-(4-(quinolin-6-yl)phenyl)-1H-imidazol-5(4H)-one] as the compound, how does the “Human FASN pIC50” value read?
Answer: 5.67

Question: Which “Human FASN pIC50” value does the source give for `Cc1cc(-c2ccc3c(c2)ncn3C)ccc1C1=NC(C)(C)C(=O)N1C[C@@H]1CCN(C(=O)C2(O)CC2)C1` [Compound 92, (R)-1-((1-(1-hydroxycyclopropanecarbonyl)pyrrolidin-3-yl)methyl)-4,4-dimethyl-2-(2-methyl-4-(1-methyl-1H-benzo[d]imidazol-5-yl)phenyl)-1H-imidazol-5(4H)-one] here?
Answer: 7.04

Question: For `CC1(C)N=C(c2ccc(-c3n[nH]c4ccccc34)cc2)N(C[C@@H]2CCN(C(=O)C3CC3)C2)C1=O` [Compound 35, (R)-2-(4-(1H-indazol-3-yl)phenyl)-1-((1-(cyclopropanecarbonyl)pyrrolidin-3-yl)methyl)-4,4-dimethyl-1H-imidazol-5(4H)-one], which “Human FASN pIC50” value is on record?
Answer: ~5.19

Question: How did the “Human FASN pIC50” value turn out when `Cn1ncc2cc(-c3ccc(C4=NC(C)(C)C(=O)N4C[C@@H]4CCN(C(=O)C5(O)CC5)C4)c(F)c3)ccc21` [Compound 76, (R)-2-(2-fluoro-4-(1-methyl-1H-indazol-5-yl)phenyl)-1-((1-(1-hydroxycyclopropanecarbonyl)pyrrolidin-3-yl)methyl)-4,4-dimethyl-1H-imidazol-5(4H)-one] was run?
Answer: 7.07

Question: `CC1(C)N=C(c2ccc(-c3n[nH]c4ccccc34)cc2F)N(CC2CN(C(=O)C3CC3)C2)C1=O` [Compound 58, 1-((1-(cyclopropanecarbonyl)azetidin-3-yl)methyl)-2-(2-fluoro-4-(1H-indazol-3-yl)phenyl)-4,4-dimethyl-1H-imidazol-5(4H)-one] was tested. Which “Human FASN pIC50” value did it give?
Answer: 6.00

Question: For `CC1(C)N=C(c2ccc(-c3cnc4ccccc4c3)cc2)N(CC2CN(C(=O)C3CC3)C2)C1=O` [Compound 19, 1-((1-(cyclopropanecarbonyl)azetidin-3-yl)methyl)-4,4-dimethyl-2-(4-(quinolin-3-yl)phenyl)-1H-imidazol-5(4H)-one], which “Human FASN pIC50” value is on record?
Answer: 5.38

Question: Which “Human FASN pIC50” value does the source give for `CC1(C)N=C(c2ccc(-c3c[nH]c4ccccc34)cc2)N(CC2CN(C(=O)C3CC3)C2)C1=O` [Compound 59, 2-(4-(1H-indol-3-yl)phenyl)-1-((1-(cyclopropanecarbonyl)azetidin-3-yl)methyl)-4,4-dimethyl-1H-imidazol-5(4H)-one] here?
Answer: ~5.79

Question: How did the “Human FASN pIC50” value turn out when `CC1(C)N=C(c2ccc(-c3ccc4cc(F)ccc4c3)cc2F)N(C[C@@H]2CCN(C(=O)C3(O)CC3)C2)C1=O` [Compound 88, (R)-2-(2-fluoro-4-(6-fluoronaphthalen-2-yl)phenyl)-1-((1-(1-hydroxycyclopropanecarbonyl)pyrrolidin-3-yl)methyl)-4,4-dimethyl-1H-imidazol-5(4H)-one] was run?
Answer: 7.69

Question: With `Cc1cc(-c2ccc3c(c2)ncn3C)ccc1C1=NC(C)(C)C(=O)N1CC1CN(C(=O)C2(O)CC2)C1` [Compound 91, 1-((1-(1-hydroxycyclopropanecarbonyl)azetidin-3-yl)methyl)-4,4-dimethyl-2-(2-methyl-4-(1-methyl-1H-benzo[d]imidazol-5-yl)phenyl)-1H-imidazol-5(4H)-one] as the compound, how does the “Human FASN pIC50” value read?
Answer: 6.37

Question: How did the “Human FASN pIC50” value turn out when `CC1(C(=O)N2CC[C@@H](CN3C(=O)C(C)(C)N=C3c3ccc(-c4ccc5cc(F)ccc5c4)cc3F)C2)CC1` [Compound 75, (R)-2-(2-fluoro-4-(6-fluoronaphthalen-2-yl)phenyl)-4,4-dimethyl-1-((1-(1-methylcyclopropanecarbonyl)pyrrolidin-3-yl)methyl)-1H-imidazol-5(4H)-one] was run?
Answer: 7.26

Question: `CC1(C)N=C(c2ccc(-c3ccc4cncnc4c3)cc2)N(CC2CN(C(=O)C3CC3)C2)C1=O` [Compound 36, 1-((1-(cyclopropanecarbonyl)azetidin-3-yl)methyl)-4,4-dimethyl-2-(4-(quinazolin-7-yl)phenyl)-1H-imidazol-5(4H)-one] was tested. Which “Human FASN pIC50” value did it give?
Answer: 5.43

Question: Which “Human FASN pIC50” value does the source give for `Cn1cnc2cc(-c3ccc(C4=NC(C)(C)C(=O)N4C[C@@H]4CCN(C(=O)C5(O)CC5)C4)c(F)c3)ccc21` [Compound 89, (R)-2-(2-fluoro-4-(1-methyl-1H-benzo[d]imidazol-5-yl)phenyl)-1-((1-(1-hydroxycyclopropanecarbonyl)pyrrolidin-3-yl)methyl)-4,4-dimethyl-1H-imidazol-5(4H)-one] here?
Answer: 7.22

Question: With `Cn1cnc2cc(-c3ccc(C4=NC(C)(C)C(=O)N4CC4CN(C(=O)C5(O)CC5)C4)c(F)c3)ccc21` [Compound 94, 2-(2-fluoro-4-(1-methyl-1H-benzo[d]imidazol-5-yl)phenyl)-1-((1-(1-hydroxycyclopropanecarbonyl)azetidin-3-yl)methyl)-4,4-dimethyl-1H-imidazol-5(4H)-one] as the compound, how does the “Human FASN pIC50” value read?
Answer: 6.49

Question: `Cn1cnc2cc(-c3ccc(C4=NC(C)(C)C(=O)N4C[C@@H]4CCN(C(=O)C5(C)CC5)C4)c(F)c3)ccc21` [Compound 90, (R)-2-(2-fluoro-4-(1-methyl-1H-benzo[d]imidazol-5-yl)phenyl)-4,4-dimethyl-1-((1-(1-methylcyclopropanecarbonyl)pyrrolidin-3-yl)methyl)-1H-imidazol-5(4H)-one] was tested. Which “Human FASN pIC50” value did it give?
Answer: 7.10

Question: Which “Human FASN pIC50” value does the source give for `CC1(C)N=C(c2ccc(-c3n[nH]c4ccccc34)cc2)N(CC2CN(C(=O)C3CC3)C2)C1=O` [Compound 99, 2-(4-(1H-indazol-3-yl)phenyl)-1-((1-(cyclopropanecarbonyl)azetidin-3-yl)methyl)-4,4-dimethyl-1H-imidazol-5(4H)-one] here?
Answer: 5.26

Question: Which “Human FASN pIC50” value does the source give for `Cn1cc(-c2ccc(-c3ccc(C4=NC(C)(C)C(=O)N4C[C@@H]4CCN(C(=O)C5(O)CC5)C4)c(F)c3)cc2)cn1` [Compound 95, (R)-2-(3-fluoro-4′-(1-methyl-1H-pyrazol-4-yl)-[1,1′-biphenyl]-4-yl)-1-((1-(1-hydroxycyclopropanecarbonyl)pyrrolidin-3-yl)methyl)-4,4-dimethyl-1H-imidazol-5(4H)-one] here?
Answer: 7.52

same assay, conditions: 3H-acetyl-CoA and malonyl-CoA substrates, SPA, mean if tested more than once, read-out: Human FASN pIC50 (converted)

Question: With `CC1(C)N=C(c2ccc(-c3ccc4ncccc4c3)cc2)N(CC2CN(C(=O)C3CC3)C2)C1=O` [Compound 98, 1-((1-(cyclopropanecarbonyl)azetidin-3-yl)methyl)-4,4-dimethyl-2-(4-(quinolin-6-yl)phenyl)-1H-imidazol-5(4H)-one] as the compound, how does the IC50 read?
Answer: > 10 µM
